Results taken from patent US12649723B2, “Carbonohydrazonoyl dicyanide compounds comprising 2 or more aryl or heteroaryl connected via linker and use thereof” (KOREA INSTITUTE OF SCIENCE AND TECHNOLOGY, priority 2020, dated 2026).
pIC50: −log10 of the molar value.

Assays:
CYP2D6 = target: T1, CYP2D6 (Homo sapiens, UniProt P10635); assay: Inhibitory effect on CYP coenzyme activity, human liver microsomes; format: in vitro ADME; conditions: compound 10 μM; human liver microsomes 0.25 mg/mL; substrate dextromethorphan; 15 minutes
T1 construct: human liver microsomes (0.25 mg/mL); from tissue; host or cells: human liver microsomes
T1 sequence (P10635 whole entry): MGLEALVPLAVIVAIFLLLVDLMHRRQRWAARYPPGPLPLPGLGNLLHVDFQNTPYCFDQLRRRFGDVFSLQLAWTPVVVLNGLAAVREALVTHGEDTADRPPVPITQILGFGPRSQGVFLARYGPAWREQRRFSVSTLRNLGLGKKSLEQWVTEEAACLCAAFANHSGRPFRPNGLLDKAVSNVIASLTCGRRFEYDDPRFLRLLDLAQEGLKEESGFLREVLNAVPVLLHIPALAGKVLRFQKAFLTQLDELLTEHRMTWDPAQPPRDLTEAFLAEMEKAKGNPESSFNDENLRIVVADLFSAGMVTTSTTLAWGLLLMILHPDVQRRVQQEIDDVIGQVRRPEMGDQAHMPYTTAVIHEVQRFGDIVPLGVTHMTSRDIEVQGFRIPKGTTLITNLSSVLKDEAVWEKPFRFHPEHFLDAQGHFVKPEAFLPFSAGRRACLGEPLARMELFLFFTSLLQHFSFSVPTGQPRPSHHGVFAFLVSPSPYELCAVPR
Experimental: (§1) The inhibitory effects of the compounds prepared according to Examples 1 to 175 on CYP coenzyme activity were identified. Specifically, human liver microsomes (0.25 mg/mL), a 0.1 M phosphate buffer solution (pH 7.4), a substrate drug cocktail of five types of drug metabolism enzymes (50 μM phenacetin, 10 μM diclofenac, 100 μM S-mephenytoin, 5 μM dextromethorphan, and 2.5 μM midazolam), and the compound at a concentration of 0 μM or 10 μM were mixed and pre-cultured at 37° C. for 5 minutes, and then further cultured at 37° C. for 15 minutes together with an NADPH generation system solution added thereto. Thereafter, the reaction was terminated by adding an acetonitrile solution containing an internal standard material (terfenadine) and centrifuged for 5 minutes (14,000 rpm, 4° C.), and then a supernatant was injected into an LC-MS/MS system for simultaneous analysis of metabolites of the substrate drugs to thereby evaluate the inhibitory effects on drug metabolism.
(§2) Metabolites of each CYP coenzyme indicator drug generated through the reaction were analyzed using the Shimadzu Nexera XR system and TSQ Vantage (Thermo). In an HPLC column, Kinetex C18 (2.1 mm×100 mm, 2.6 μm, particle size; Phenomenex, USA) was used, and mobile phases were (A) distilled water containing 0.1% formic acid and (B) acetonitrile containing 0.1% formic acid, and a gradient program shown in Table 3 was applied thereto.
(§3) The generated metabolites were quantified using a multiple reaction monitoring (MRM) quantification mode, and Xcalibur (version 1.6.1) was used for data analysis. Inhibitory effects of the novel compound prepared according to the examples of the present invention on CYP coenzyme activity are shown in Table 4 below.

CYP2C19 = target: T2, CYP2C19 (Homo sapiens, UniProt P33261); assay: as above; format: in vitro ADME; conditions: compound 10 μM; human liver microsomes 0.25 mg/mL; substrate S-mephenytoin; 15 minutes
T2 construct: human liver microsomes (0.25 mg/mL); from tissue; host or cells: human liver microsomes
T2 sequence (P33261 whole entry): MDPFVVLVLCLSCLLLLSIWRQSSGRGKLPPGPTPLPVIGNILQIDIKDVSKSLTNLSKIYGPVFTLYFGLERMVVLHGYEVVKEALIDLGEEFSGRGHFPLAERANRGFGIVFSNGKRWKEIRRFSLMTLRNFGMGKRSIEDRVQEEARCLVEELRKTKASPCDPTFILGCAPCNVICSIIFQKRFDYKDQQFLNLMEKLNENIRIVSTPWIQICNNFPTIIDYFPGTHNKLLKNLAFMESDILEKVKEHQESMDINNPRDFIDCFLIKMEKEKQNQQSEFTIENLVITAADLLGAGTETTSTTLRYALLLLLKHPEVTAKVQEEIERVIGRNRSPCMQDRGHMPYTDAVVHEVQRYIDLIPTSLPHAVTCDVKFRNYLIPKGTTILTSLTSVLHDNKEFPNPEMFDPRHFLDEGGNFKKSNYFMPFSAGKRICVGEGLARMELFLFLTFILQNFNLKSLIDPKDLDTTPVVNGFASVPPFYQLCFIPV
Experimental: as §1, §2, §3

CYP2C9 = target: T3, CYP2C9 (Homo sapiens, UniProt P11712); assay: as above; format: in vitro ADME; conditions: compound 10 μM; human liver microsomes 0.25 mg/mL; substrate diclofenac; 15 minutes
T3 construct: human liver microsomes (0.25 mg/mL); from tissue; host or cells: human liver microsomes
T3 sequence (P11712 whole entry): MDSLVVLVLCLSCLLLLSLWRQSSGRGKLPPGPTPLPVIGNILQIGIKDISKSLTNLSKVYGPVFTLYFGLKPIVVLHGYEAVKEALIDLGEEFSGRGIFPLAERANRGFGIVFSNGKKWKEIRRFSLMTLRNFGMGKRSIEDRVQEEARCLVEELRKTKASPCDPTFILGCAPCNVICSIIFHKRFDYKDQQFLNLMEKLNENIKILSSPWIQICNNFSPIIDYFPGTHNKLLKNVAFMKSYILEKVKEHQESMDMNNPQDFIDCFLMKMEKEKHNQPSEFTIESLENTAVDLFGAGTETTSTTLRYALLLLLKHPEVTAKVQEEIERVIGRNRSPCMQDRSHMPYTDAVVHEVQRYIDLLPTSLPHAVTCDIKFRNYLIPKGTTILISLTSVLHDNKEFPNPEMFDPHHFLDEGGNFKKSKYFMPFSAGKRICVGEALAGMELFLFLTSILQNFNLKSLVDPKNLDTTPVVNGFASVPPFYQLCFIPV
Experimental: as §1, §2, §3

CYP3A4 = target: T4, CYP3A4 (Homo sapiens, UniProt P08684); assay: as above; format: in vitro ADME; conditions: compound 10 μM; human liver microsomes 0.25 mg/mL; substrate midazolam; 15 minutes
T4 construct: human liver microsomes (0.25 mg/mL); from tissue; host or cells: human liver microsomes
T4 sequence (P08684 whole entry): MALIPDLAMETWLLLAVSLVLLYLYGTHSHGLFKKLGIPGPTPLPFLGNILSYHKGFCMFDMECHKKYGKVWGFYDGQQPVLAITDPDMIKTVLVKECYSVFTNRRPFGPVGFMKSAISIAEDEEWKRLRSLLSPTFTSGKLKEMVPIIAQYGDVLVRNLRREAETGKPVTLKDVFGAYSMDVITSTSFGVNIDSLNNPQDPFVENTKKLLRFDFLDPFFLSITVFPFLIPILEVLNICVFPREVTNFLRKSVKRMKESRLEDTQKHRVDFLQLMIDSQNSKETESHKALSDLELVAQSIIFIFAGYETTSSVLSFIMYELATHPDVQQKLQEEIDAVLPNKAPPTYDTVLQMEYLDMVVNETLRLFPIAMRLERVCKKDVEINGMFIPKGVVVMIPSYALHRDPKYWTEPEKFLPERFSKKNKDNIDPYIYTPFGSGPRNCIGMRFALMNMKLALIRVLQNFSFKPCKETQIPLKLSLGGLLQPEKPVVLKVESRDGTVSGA
Experimental: as §1, §2, §3

CYP1A2 = target: T5, CYP1A2 (Homo sapiens, UniProt P05177); assay: as above; format: in vitro ADME; conditions: compound 10 μM; human liver microsomes 0.25 mg/mL; substrate phenacetin; 15 minutes
T5 construct: human liver microsomes (0.25 mg/mL); from tissue; host or cells: human liver microsomes
T5 sequence (P05177 1-516): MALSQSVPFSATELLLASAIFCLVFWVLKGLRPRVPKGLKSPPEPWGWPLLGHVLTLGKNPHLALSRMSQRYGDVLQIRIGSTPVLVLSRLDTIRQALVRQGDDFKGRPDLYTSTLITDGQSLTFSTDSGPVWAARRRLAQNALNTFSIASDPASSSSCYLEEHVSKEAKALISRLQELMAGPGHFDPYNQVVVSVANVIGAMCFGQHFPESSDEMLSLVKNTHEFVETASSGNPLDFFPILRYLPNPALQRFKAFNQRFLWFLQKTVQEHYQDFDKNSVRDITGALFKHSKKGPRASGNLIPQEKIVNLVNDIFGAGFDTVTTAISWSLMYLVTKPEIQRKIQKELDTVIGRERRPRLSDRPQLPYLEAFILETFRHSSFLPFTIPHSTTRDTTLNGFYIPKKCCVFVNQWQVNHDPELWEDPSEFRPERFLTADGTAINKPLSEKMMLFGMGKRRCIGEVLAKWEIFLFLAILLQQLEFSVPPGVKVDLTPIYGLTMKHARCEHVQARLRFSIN
Experimental: as §1, §2, §3

[1] = Liver microsome stability; format: in vitro ADME, mouse; conditions: amount of substrate remaining; compound 1 μM, 30 minutes, 37° C., NADPH
Experimental: (§4) The stability of liver microsomes due to the compounds prepared according to Examples 1 to 175 was confirmed. Specifically, four types of liver microsomes (human, dog, rat, and mouse, each 0.25 mg/mL), a 0.1 M phosphate buffer solution (pH 7.4), and each of the compounds at a concentration of 1 μM were mixed and pre-cultured at 37° C. for 5 minutes and further cultured at 37° C. for 30 minutes together with an NADPH generation system solution added thereto. Thereafter, the reaction was terminated by adding an acetonitrile solution containing an internal standard material (chloropropamide) and centrifuged for 5 minutes (14,000 rpm, 4° C.), and then a supernatant was injected into an LC-MS/MS system for analysis of substrate drugs to thereby evaluate metabolic stability due to 8 types of compounds.
(§5) The amount of the substrate remaining after the reaction was analyzed using the Shimadzu Nexera XR system and TSQ Vantage (Thermo). In an HPLC column, Kinetex XB-C18 (2.1 mm×100 mm, particle size of 2.6 μm; Phenomenex, USA) was used, and mobile phases were (A) distilled water containing 0.1% formic acid and (B) acetonitrile containing 0.1% formic acid. Analyst software (version 1.6.3) and Xcalibur (version 1.6.1) were used for data analysis.

[2] = Liver microsome stability; format: in vitro ADME, rat; conditions: amount of substrate remaining; compound 1 μM, 30 minutes, 37° C., NADPH
Experimental: as §4, §5

tau protein = target: T6, tau protein (Homo sapiens, UniProt P10636); assay: Tau-BiFC cell model: inhibition of tau protein aggregation; format: cell-based; conditions: for remaining activity at 10 µM / remaining activity at 3 µM: 48 h, Forskolin-only group = 100% tau protein-aggregated state; for remaining activity at 10 µM: compound 10 μM, BiFC fluorescence, read-out: Response (% @10 μM); for pIC50: Tau BiFC in cells, with Forskolin 30 μM, 48 hours; for remaining activity at 3 µM: compounds marked *: measured at 3 μM, read-out: Response
T6 construct: fused on or other part: Split fluorescent-protein halves for BiFC are fused to tau; In the published tau-BiFC line these are Venus VN173 and VC155
T6 sequence (P10636 2-441 isoform P10636-8 limits assumed): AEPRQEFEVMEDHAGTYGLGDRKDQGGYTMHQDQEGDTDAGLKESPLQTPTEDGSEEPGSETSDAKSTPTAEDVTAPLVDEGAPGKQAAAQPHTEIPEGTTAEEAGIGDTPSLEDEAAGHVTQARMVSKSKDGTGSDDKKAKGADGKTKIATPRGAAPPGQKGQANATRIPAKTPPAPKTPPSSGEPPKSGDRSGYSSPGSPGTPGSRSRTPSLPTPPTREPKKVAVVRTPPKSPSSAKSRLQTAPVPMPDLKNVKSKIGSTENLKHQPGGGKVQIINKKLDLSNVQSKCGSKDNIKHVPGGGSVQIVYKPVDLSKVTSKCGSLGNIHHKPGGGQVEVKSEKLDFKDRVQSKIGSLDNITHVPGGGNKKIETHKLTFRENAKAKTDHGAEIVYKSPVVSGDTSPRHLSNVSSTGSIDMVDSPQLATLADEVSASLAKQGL
Outline: (§6)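 Aggregation was induced by 30 μM Forskolin co-applied with test compound for 48 h, with screening at 1, 3, 10 μM and dose-response at 0.03–30 μM. Nuclei were stained with Hoechst (2 μg/mL) and counted against Forskolin-only wells for cytotoxicity. Inhibition came from BiFC fluorescence relative to Forskolin-only versus untreated cells, with IC50 by nonlinear regression.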

[3] = Liver microsome stability; format: in vitro ADME, human; conditions: amount of substrate remaining; compound 1 μM, 30 minutes, 37° C., NADPH
Outline: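 Human, dog, rat and mouse liver microsomes (0.25 mg/mL) with 1 μM compound in 0.1 M phosphate buffer pH 7.4, preincubated 5 min at 37° C, then incubated 30 min at 37° C with NADPH-generating system. Reaction stopped with acetonitrile containing internal standard; remaining parent quantified by LC-MS/MS.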

[4] = Liver microsome stability; format: in vitro ADME, dog; conditions: amount of substrate remaining; compound 1 μM, 30 minutes, 37° C., NADPH
Experimental: as §4, §5

Tau-BiFC cells = assay: Cell viability (cytotoxicity) in tau-BiFC cells, count of stained nuclei; format: cell-based; conditions: Forskolin-only group = 100% cell viability; for Cell viability (% @10 μM): compound 10 μM; for Cell viability: compounds marked *: measured at 3 μM
Outline: as §6

## Cc1ccc(NC(=O)c2ccc(NN=C(C#N)C#N)cn2)cn1 [Compound 38, (6-(6-methylpyridin-3-ylcarbamoyl)pyridin-3-yl)carbonohydrazonoyl dicyanide]
CYP2D6
  CYP2D6: >100
CYP2C19
  CYP2C19: 83.0
CYP2C9
  CYP2C9: 49.1
CYP3A4
  CYP3A4: 92.4
CYP1A2
  CYP1A2: 92.5
[1]
  Mouse (%): 96.4%
[2]
  Rat (%): >100%
Tau protein
  remaining activity at 10 µM: 0%
  pIC50: 6.00
[3]
  Human (%): 99.1%
[4]
  Dog (%): 98.8%
Tau-BiFC cells
  Cell viability (% @10 μM): 110.6%

## N#CC(C#N)=NNc1ccc(Oc2ccccc2)nc1 [Compound 68, (6-phenoxypyridin-3-yl)carbonohydrazonoyl dicyanide]
[1]
  Mouse (%): 93.6%
[2]
  Rat (%): 63%
Tau protein
  remaining activity at 10 µM: 0%
  pIC50: 6.96
[3]
  Human (%): 6.7%
[4]
  Dog (%): 87.8%
Tau-BiFC cells
  Cell viability (% @10 μM): 117%

## Cc1cccc(C(=O)Nc2ccc(NN=C(C#N)C#N)cn2)c1F [Compound 20, (6-(2-fluoro-3-methylbenzamido)pyridin-3-yl)carbonohydrazonoyl dicyanide]
CYP2D6
  CYP2D6: 75.8
CYP2C19
  CYP2C19: 72
CYP2C9
  CYP2C9: 22.3
CYP3A4
  CYP3A4: 76.1
CYP1A2
  CYP1A2: 69.4
[1]
  Mouse (%): 68.3%
[2]
  Rat (%): 33.7%
Tau protein
  remaining activity at 10 µM: 0%
  pIC50: 6.74
[3]
  Human (%): 91.9%
[4]
  Dog (%): >100%
Tau-BiFC cells
  Cell viability (% @10 μM): 110.4%

## Cc1cc(NN=C(C#N)C#N)ccc1OCc1nc2ccccc2o1 [Compound 156, (4-(benzo[d]oxazol-2-ylmethoxy)-3-methylphenyl)carbonohydrazonoyl dicyanide]
CYP2D6
  CYP2D6: 96
CYP2C19
  CYP2C19: 83.7
CYP2C9
  CYP2C9: 54
CYP3A4
  CYP3A4: 92.6
CYP1A2
  CYP1A2: 95.9
[1]
  Mouse (%): 41.3%
[2]
  Rat (%): 55.5%
Tau protein
  remaining activity at 3 µM: -29%
  pIC50: 7.30
[3]
  Human (%): 49.3%
Tau-BiFC cells
  Cell viability: 124%

## Cc1cc(NN=C(C#N)C#N)ccc1OCc1ncccn1 [Compound 143, (3-methyl-4-(pyrimidin-2-ylmethoxy)phenyl)carbonohydrazonoyl dicyanide]
CYP2D6
  CYP2D6: >100
CYP2C19
  CYP2C19: >100
CYP2C9
  CYP2C9: >100
CYP3A4
  CYP3A4: 90.3
CYP1A2
  CYP1A2: 95.9
[1]
  Mouse (%): 50%
[2]
  Rat (%): 57.6%
Tau protein
  remaining activity at 3 µM: 11%
[3]
  Human (%): 78.3%
Tau-BiFC cells
  Cell viability: 125%

## N#CC(C#N)=NNc1ccc(Oc2cccc(F)c2)nc1 [Compound 69, (6-(3-fluorophenoxy)pyridin-3-yl)carbonohydrazonoyl dicyanide]
[1]
  Mouse (%): 81.6%
[2]
  Rat (%): 75.6%
Tau protein
  remaining activity at 10 µM: 0%
  pIC50: 6.59
[3]
  Human (%): 8.4%
[4]
  Dog (%): 94.8%
Tau-BiFC cells
  Cell viability (% @10 μM): 119.4%

## Cc1cc(NN=C(C#N)C#N)ccc1OCc1cscn1 [Compound 152, (3-methyl-4-(thiazol-4-ylmethoxy)phenyl)carbonohydrazonoyl dicyanide]
CYP2D6
  CYP2D6: 96.1
CYP2C19
  CYP2C19: 95
CYP2C9
  CYP2C9: 17.2
CYP3A4
  CYP3A4: >100
CYP1A2
  CYP1A2: 75.5
[1]
  Mouse (%): 56.6%
[2]
  Rat (%): 72.3%
Tau protein
  remaining activity at 3 µM: -37%
  pIC50: 7.27
[3]
  Human (%): 73.2%
Tau-BiFC cells
  Cell viability: 117%

## Cc1cc(NN=C(C#N)C#N)ccc1OCc1cccnc1 [Compound 145, (3-methyl-4-(pyridin-3-ylmethoxy)phenyl)carbonohydrazonoyl dicyanide]
CYP2D6
  CYP2D6: 39.1
CYP2C19
  CYP2C19: 46.5
CYP2C9
  CYP2C9: 2.2
CYP3A4
  CYP3A4: 22
CYP1A2
  CYP1A2: 5.3
[1]
  Mouse (%): 93.3%
[2]
  Rat (%): 91.2%
Tau protein
  remaining activity at 3 µM: -49%
  pIC50: 6.90
[3]
  Human (%): 93.7%
Tau-BiFC cells
  Cell viability: 95%

## N#CC(C#N)=NNc1ccc(NC(=O)c2cccc(C(F)(F)F)c2)nc1 [Compound 26, (6-(3-(trifluoromethyl)benzamido)pyridin-3-yl)carbonohydrazonoyl dicyanide]
[1]
  Mouse (%): 7.1%
[2]
  Rat (%): 19.8%
Tau protein
  remaining activity at 10 µM: 0%
  pIC50: 6.15
[3]
  Human (%): 72.5%
[4]
  Dog (%): 29.8%
Tau-BiFC cells
  Cell viability (% @10 μM): 109.8%

## Cc1cc(NN=C(C#N)C#N)ccc1OCc1nc2ccccc2[nH]1 [Compound 146, (4-((1H-benzo[d]imidazol-2-yl)methoxy)-3-methylphenyl)carbonohydrazonoyl dicyanide]
CYP2D6
  CYP2D6: >100
CYP2C19
  CYP2C19: 88.4
CYP2C9
  CYP2C9: 47.2
CYP3A4
  CYP3A4: 82.7
CYP1A2
  CYP1A2: >100
[1]
  Mouse (%): 70.5%
[2]
  Rat (%): 31.1%
Tau protein
  remaining activity at 3 µM: -35%
  pIC50: 6.35
[3]
  Human (%): 64.6%
Tau-BiFC cells
  Cell viability: 133%

## Cc1cc(NN=C(C#N)C#N)ccc1OCc1cnccn1 [Compound 144, (3-methyl-4-(pyrazin-2-ylmethoxy)phenyl)carbonohydrazonoyl dicyanide]
CYP2D6
  CYP2D6: >100
CYP2C19
  CYP2C19: >100
CYP2C9
  CYP2C9: 24.5
CYP3A4
  CYP3A4: 89.2
CYP1A2
  CYP1A2: 37.7
[1]
  Mouse (%): 80.9%
[2]
  Rat (%): 92.4%
Tau protein
  remaining activity at 3 µM: -20%
  pIC50: 5.89
[3]
  Human (%): 74.9%
Tau-BiFC cells
  Cell viability: 111%
